# Laboratory results as given in US10640802B2 (priority 2012, dated 2020).
# System: Acidithiobacillus ferrooxidans AfArsR variant C102S (biosensor co-cultured with Burkholderia sp. MR1)
# Type: cell-based
row,SMILES,response of co-cultured biosensor
1,"O=[As](O)(O)c1ccccc1 [PAA, phenylarsonic acid]",it didn't
2,"O=[N+]([O-])c1cc([As](=O)(O)O)ccc1O [Rox(V), 4-hydroxy-3-nitrobenzenearsonic acid]",it didn't
